Measurements published in paper PMC11466185, “Mechanisms and efficacy of small molecule latency-promoting agents to inhibit HIV reactivation ex vivo” (JCI Insight, 2024).
Entries after “also recorded” stand apart in the source; their conditions may differ.

Tested on: PolyA HIV RNA in the supernatant
Experiment: Supernatant viral RNA (polyadenylated HIV RNA, RT-ddPCR) at day 6 after T cell activation
Format: cell-based
Details: for Viral RNA in supernatant (PolyA HIV RNA), median relative to activated DMSO: day 6 after anti-CD3/CD28 activation, Figure 5; for Polyadenylated HIV RNA in supernatant (Fig 5) / Polyadenylated HIV RNA in supernatant (Fig 5, Fig S6B): day 6
Description: PBMCs were cultured in the presence of individual drugs in DMSO or DMSO alone as control, activated (anti-CD3/CD28), and assessed for levels of PolyA HIV RNA in the supernatant at day 6.
Each drug was tested in PBMCs from 6 ART-suppressed study participants (except for triptolide, n = 5). PBMCs were aliquoted into wells at 6 × 10^6 cells/well. After activation, the cells were cultured with antiretrovirals in the presence of individual drugs in DMSO or DMSO alone as control. All conditions were tested in the presence of CD3/28 T cell–activating beads, except for the unactivated DMSO condition. After 6 days, RNA was extracted from the culture supernatant. Polyadenylated HIV RNA in the supernatant was quantified by RT-ddPCR, expressed as copies/mL, and then normalized to the levels of the activated DMSO (% of activated DMSO). Medians and IQR are presented, as well as the individual values per study participant in different colors. Comparisons were performed using Wilcoxon’s signed-rank test.
For quantification of cell-associated HIV transcripts, PBMCs were harvested either after 24 hours or after 6 days. The cell viabilities were measured by trypan blue staining; then the cells were pelleted by centrifuging at 300g for 6 minutes and stored at –80°C. For quantification of virion-associated HIV RNA, cell culture supernatant was collected from 6 × 10^6 PBMCs that were treated and activated for 6 days as described above. Residual cells and cellular debris were subsequently removed from the supernatant by differential centrifugation (300g for 6 minutes, then 20,000g for 10 minutes), and the supernatant was stored at –80°C.
Total cellular DNA and RNA were extracted in parallel using Trireagent (Molecular Research Center) according to the manufacturer’s instructions, except for study participants 2147 and 2461 (Figure 4), for whom DNA and RNA were extracted using the QIAGEN AllPrep DNA/RNA/miRNA Universal Kit with on-column DNase I treatment of the RNA and the manufacturer’s modification to enhance recovery of short transcripts. RNA and DNA concentrations were measured using UV spectrophotometry (NanoDrop One, Thermo Fisher Scientific). Total initiated HIV (TAR) transcripts were quantified by a 3-step polyadenylation RT-ddPCR as described previously ([8], [84]). HIV 5′ elongated (LLTR), midtranscribed (Pol), completed (PolyA), and multiply spliced (TatRev) transcripts were quantified by a 2-step RT-ddPCR as previously described ([8]). The levels of each HIV transcript were normalized to 1 μg of total cellular RNA and expressed as a percentage of the (activated) DMSO control. To quantify virion-associated RNA in supernatant, RNA was extracted from 400 μL supernatant using Trireagent-LS (Molecular Research Center) according to the manufacturer’s instructions. Levels of U3-polyadenylated HIV RNA were measured in the supernatant by RT-ddPCR, normalized to copies/mL, and expressed as a percentage of the activated DMSO. For measuring the HIV infection frequency at day 6, the HIV DNA U3-U5 LTR region was quantified by using ddPCR as described previously ([8]). HIV DNA copies were normalized to cell numbers according to the mass of DNA input per well (calculated from the DNA concentration and input volume) ([85]).

Compound | Viral RNA in supernatant (PolyA HIV RNA), median relative to activated DMSO | Polyadenylated HIV RNA in supernatant (Fig 5) (study participant 150a) | Polyadenylated HIV RNA in supernatant (Fig 5) (study participant 156) | Polyadenylated HIV RNA in supernatant (Fig 5) (study participant 163) | Polyadenylated HIV RNA in supernatant (Fig 5) (study participant 2027) | Polyadenylated HIV RNA in supernatant (Fig 5) (study participant 2147b) | Polyadenylated HIV RNA in supernatant (Fig 5) (study participant 2161) | Polyadenylated HIV RNA in supernatant (Fig 5) (study participant 2747) | Polyadenylated HIV RNA in supernatant (Fig 5) (study participant 2750) | Polyadenylated HIV RNA in supernatant (Fig 5) (study participant 2256) | Polyadenylated HIV RNA in supernatant (Fig 5, Fig S6B) (study participant 150b) | Polyadenylated HIV RNA in supernatant (Fig 5) (study participant 5557) | Polyadenylated HIV RNA in supernatant (Fig 5, Fig S6B) (study participant 1713)
CC(=O)N[C@@H]1CCC[C@H](C(=O)Nc2cc(-c3cnn4c3CC(C)(C)C4)c(Cl)cn2)C1 [AZD4573] | 1.9% | 27.84 % of activated DMSO | 3.19 % of activated DMSO | 90.51 % of activated DMSO | 0 % of activated DMSO | 0.7 % of activated DMSO | 0 % of activated DMSO | 17.73 % of activated DMSO | 0 % of activated DMSO | – | – | – | –
CNc1ccc([N+](=O)[O-])c(Nc2ccc3[nH]ncc3c2)n1 [KRIBB11] | did not inhibit | 72.41 % of activated DMSO | 18.79 % of activated DMSO | 90.15 % of activated DMSO | 444.44 % of activated DMSO | 47.37 % of activated DMSO | – | 72.27 % of activated DMSO | – | 93.55 % of activated DMSO | – | – | –
CN1CC[C@H](c2c(O)cc(O)c3c(=O)cc(-c4ccccc4Cl)oc23)[C@H](O)C1 [alvocidib] | – | – | – | – | 504.5 % of activated DMSO | 0 % of activated DMSO | 41.86 % of activated DMSO | – | – | 81.72 % of activated DMSO | 81.21 % of activated DMSO | 155.63 % of activated DMSO | –
CCc1cnn2c(NCc3ccc[n+]([O-])c3)cc(N3CCCC[C@H]3CCO)nc12 [dinaciclib] | – | – | 0 % of activated DMSO | 133.94 % of activated DMSO | 0 % of activated DMSO | 0 % of activated DMSO | 4.65 % of activated DMSO | 23.64 % of activated DMSO | – | – | 11.52 % of activated DMSO | – | –
CO[C@H]([C@@H](C)[C@H]1O[C@]1(C)C[C@H](C)/C=C/C=C(\C)[C@H]1O[C@@H](CC(=O)O)CC[C@@H]1C)[C@@H](C)O [herboxidiene] | tended to reduce | – | – | – | 240.24 % of activated DMSO | 0 % of activated DMSO | 4.65 % of activated DMSO | – | – | 1.61 % of activated DMSO | 67.27 % of activated DMSO | 42.05 % of activated DMSO | –
COc1ccc(-c2cc(=O)c3c(O)cc(O)c(-c4cc(-c5cc(=O)c6c(O)cc(O)cc6o5)ccc4OC)c3o2)cc1 [isoginkgetin] | – | – | – | – | 8.41 % of activated DMSO | 63.16 % of activated DMSO | 0 % of activated DMSO | – | – | 4.84 % of activated DMSO | 303.03 % of activated DMSO | 39.4 % of activated DMSO | –
O=c1c(O)c(-c2ccc(O)c(O)c2)oc2cc(O)cc(O)c12 [quercetin] | – | – | – | 85.4 % of activated DMSO | 20.42 % of activated DMSO | 8.6 % of activated DMSO | 4.65 % of activated DMSO | 9.09 % of activated DMSO | – | 134.41 % of activated DMSO | 315.15 % of activated DMSO | – | –
N#CC[C@H](C1CCCC1)n1cc(-c2ncnc3[nH]ccc23)cn1 [ruxolitinib] | – | 6.55 % of activated DMSO | 0 % of activated DMSO | 0.53 % of activated DMSO | 0 % of activated DMSO | 0 % of activated DMSO | 5.81 % of activated DMSO | 0 % of activated DMSO | 0 % of activated DMSO | – | – | – | –
C=CCNC1=C2C[C@@H](C)C[C@H](OC)[C@H](O)[C@@H](C)/C=C(\C)[C@H](OC(N)=O)[C@@H](OC)/C=C\C=C(/C)C(=O)NC(=CC1=O)C2=O [tanespimycin] | – | – | – | – | – | 0 % of activated DMSO | – | – | 0 % of activated DMSO | 2.15 % of activated DMSO | 0 % of activated DMSO | 0 % of activated DMSO | 0 % of activated DMSO
CC(C)[C@]12O[C@H]1[C@@H]1O[C@]13[C@]1(O[C@H]1C[C@H]1C4=C(CC[C@@]13C)C(=O)OC4)[C@@H]2O [triptolide] | 0.0% | – | – | – | – | 0 % of activated DMSO | – | – | 0 % of activated DMSO | 2.15 % of activated DMSO | 0 % of activated DMSO | 0 % of activated DMSO | –
mithramycin A | tended to reduce; also recorded: inhibited the production of viral RNA in supernatant in 5 out of 6 study participants | – | – | – | – | 0 % of activated DMSO | – | – | – | 2.15 % of activated DMSO | 2.42 % of activated DMSO | 0 % of activated DMSO | 2.06 % of activated DMSO
pladienolide B | 3.8% | 17.33 % of activated DMSO | 7.61 % of activated DMSO | 15.15 % of activated DMSO | 63.66 % of activated DMSO | 0 % of activated DMSO | 0 % of activated DMSO | 0 % of activated DMSO | 0 % of activated DMSO | – | – | – | –
